The target in experiment [1] is T1, DDR2 (Homo sapiens, UniProt Q16832).
T1 construct: purchased Life Technologies
T1 sequence (Q16832 22-855): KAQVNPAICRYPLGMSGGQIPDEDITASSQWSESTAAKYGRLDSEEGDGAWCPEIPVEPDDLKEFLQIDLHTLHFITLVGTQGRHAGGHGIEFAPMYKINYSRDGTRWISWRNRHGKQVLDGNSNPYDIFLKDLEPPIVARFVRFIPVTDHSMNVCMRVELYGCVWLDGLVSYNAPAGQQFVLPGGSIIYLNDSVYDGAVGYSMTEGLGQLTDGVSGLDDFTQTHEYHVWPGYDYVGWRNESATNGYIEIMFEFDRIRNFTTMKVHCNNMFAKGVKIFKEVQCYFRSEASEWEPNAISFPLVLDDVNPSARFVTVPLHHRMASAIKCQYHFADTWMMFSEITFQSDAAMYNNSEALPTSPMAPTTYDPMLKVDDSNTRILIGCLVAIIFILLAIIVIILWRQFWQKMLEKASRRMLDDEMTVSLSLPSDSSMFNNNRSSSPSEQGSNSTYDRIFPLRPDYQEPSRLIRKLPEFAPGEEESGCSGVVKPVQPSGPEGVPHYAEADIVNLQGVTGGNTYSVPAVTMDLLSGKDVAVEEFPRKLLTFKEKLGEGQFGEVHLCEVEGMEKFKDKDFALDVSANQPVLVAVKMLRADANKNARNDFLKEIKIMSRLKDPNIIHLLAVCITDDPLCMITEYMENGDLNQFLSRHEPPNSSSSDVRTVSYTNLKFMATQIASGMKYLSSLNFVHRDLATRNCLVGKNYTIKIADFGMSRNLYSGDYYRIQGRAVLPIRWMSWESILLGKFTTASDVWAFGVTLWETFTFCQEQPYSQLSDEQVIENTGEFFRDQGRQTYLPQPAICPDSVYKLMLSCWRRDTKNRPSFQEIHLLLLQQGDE
Nature of the experiment: LanthaScreen Europium Kinase Binding assay, DDR2. The note with it: 5 nM DDR2, 10 nM Kinase Tracer 178, 1 h at rt; Ki from IC50 by Cheng-Prusoff; read-out: Ki DDR2. Here is the method:
(§1) DDR1 and DDR2 binding assays were performed using Life Technologies LanthaScreen™ Europium Kinase Binding assay. […] IC50 values were determined in GraphPad Prism 7.0 software, using 4 parameter model: log (inhibitor) vs. response. IC50 values were converted in Ki using the Cheng-Prusoff equation (Ki-IC50/(1+ [Tracer]/Kd).

The target in experiment [2] is T2, DDR1 (Homo sapiens, UniProt Q08345).
T2 construct: purchased Carna Biosciences
Nature of the experiment: LanthaScreen Europium Kinase Binding assay, DDR1. Particulars: 5 nM DDR1, 20 nM Kinase Tracer 178, 1 h at rt; Ki from IC50 by Cheng-Prusoff; read-out: Ki DDR1. As for the experimental part:
as §1

Molecules are shown by their SMILES. pKi: −log10 of the molar value.

T2 sequence (Q08345 19-913): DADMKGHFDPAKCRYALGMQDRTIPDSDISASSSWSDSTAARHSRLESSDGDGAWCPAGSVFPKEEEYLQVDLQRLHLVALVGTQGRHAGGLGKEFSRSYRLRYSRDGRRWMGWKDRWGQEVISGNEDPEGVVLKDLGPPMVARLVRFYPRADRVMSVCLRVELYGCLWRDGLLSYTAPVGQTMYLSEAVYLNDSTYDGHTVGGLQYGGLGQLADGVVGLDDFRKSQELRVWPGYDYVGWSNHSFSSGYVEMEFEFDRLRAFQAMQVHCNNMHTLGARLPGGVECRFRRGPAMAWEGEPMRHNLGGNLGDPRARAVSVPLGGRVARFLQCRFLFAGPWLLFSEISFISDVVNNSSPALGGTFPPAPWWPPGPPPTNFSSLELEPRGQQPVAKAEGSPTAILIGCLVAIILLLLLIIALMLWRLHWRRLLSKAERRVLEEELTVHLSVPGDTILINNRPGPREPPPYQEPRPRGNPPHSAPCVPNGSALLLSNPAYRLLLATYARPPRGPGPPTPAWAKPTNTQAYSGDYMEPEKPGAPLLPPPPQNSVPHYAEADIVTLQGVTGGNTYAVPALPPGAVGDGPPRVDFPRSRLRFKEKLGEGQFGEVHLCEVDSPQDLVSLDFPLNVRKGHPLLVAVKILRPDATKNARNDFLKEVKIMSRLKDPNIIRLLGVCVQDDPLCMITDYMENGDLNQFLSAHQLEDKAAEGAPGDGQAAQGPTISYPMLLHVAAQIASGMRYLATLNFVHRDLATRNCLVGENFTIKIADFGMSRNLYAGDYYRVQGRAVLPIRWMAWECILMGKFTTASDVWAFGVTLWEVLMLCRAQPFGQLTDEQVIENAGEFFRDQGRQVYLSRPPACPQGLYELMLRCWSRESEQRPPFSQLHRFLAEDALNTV

As for `CN(C(=O)Nc1cccc(C2(C(F)(F)F)CC2)c1)C1CC2(C1)CN(C(=O)c1cnn3ccn(C)c13)C2` [Example 198, 1-methyl-1-(2-(1-methyl-1H-imidazo[1,2-b]pyrazole-7-carbonyl)-2-azaspiro[3.3]heptan-6-yl)-3-(3-(1-(trifluoromethyl)cyclopropyl)phenyl)urea], the pKi in experiment [1] and in experiment [2] was > 8.30 throughout.
On to `CN(C(=O)Nc1cc(C(C)(C)C(F)(F)F)on1)C1CC2(C1)CN(C(=O)c1cnn3ccn(C)c13)C2` [Example 199, 1-methyl-1-(2-(1-methyl-1H-imidazo[1,2-b]pyrazole-7-carbonyl)-2-azaspiro[3.3]heptan-6-yl)-3-(5-(1,1,1-trifluoro-2-methylpropan-2-yl)isoxazol-3-yl)urea], for which the pKi in experiment [1] was 7.60 to 8.30; in experiment [2], > 8.30.
Regarding `CN(C(=O)Nc1cc(Br)ccn1)C1CC2(C1)CN(C(=O)c1cnn3ccn(C)c13)C2` [Example 200, 3-(4-bromopyridin-2-yl)-1-methyl-1-(2-(1-methyl-1H-imidazo[1,2-b]pyrazole-7-carbonyl)-2-azaspiro[3.3]heptan-6-yl)urea], the pKi in experiment [1] is 7.60 to 8.30; in experiment [2], > 8.30.
Consider `Cc1ccc(OC(F)(F)F)cc1NC(=O)N(C)C1CC2(C1)CN(C(=O)c1ncnc3[nH]ccc13)C2` [Example 201, 1-(2-(7H-pyrrolo[2,3-d]pyrimidine-4-carbonyl)-2-azaspiro[3.3]heptan-6-yl)-1-methyl-3-(2-methyl-5-(trifluoromethoxy)phenyl)urea], for which the pKi was 7.60 to 8.30 in experiment [1] and > 8.30 in experiment [2].
On to `COCCn1ccn2ncc(C(=O)N3CC4(CC(N(C)C(=O)Nc5cc(OC(F)(F)F)ccn5)C4)C3)c12` [Example 202, 1-(2-(1-(2-methoxyethyl)-1H-imidazo[1,2-b]pyrazole-7-carbonyl)-2-azaspiro[3.3]heptan-6-yl)-1-methyl-3-(4-(trifluoromethoxy)pyridin-2-yl)urea], for which the values for the pKi in experiment [1] and in experiment [2] were 7.00 to 7.60 and > 8.30, respectively.
Consider `COCCn1ccn2ncc(C(=O)N3CC4(CC(N(C)C(=O)Nc5cccc(C(F)(F)F)c5)C4)C3)c12` [Example 203, 1-(2-(1-(2-methoxyethyl)-1H-imidazo[1,2-b]pyrazole-7-carbonyl)-2-azaspiro[3.3]heptan-6-yl)-1-methyl-3-(3-(trifluoromethyl)phenyl)urea], for which the pKi in experiment [1] is 7.60 to 8.30; in experiment [2] it was > 8.30.
The matching figures for `CN(C(=O)Nc1cncc(OC(F)(F)F)c1)C1CC2(C1)CN(C(=O)c1ncnc3[nH]ccc13)C2` [Example 204, 1-(2-(7H-pyrrolo[2,3-d]pyrimidine-4-carbonyl)-2-azaspiro[3.3]heptan-6-yl)-1-methyl-3-(5-(trifluoromethoxy)pyridin-3-yl)urea]: 7.60 to 8.30 and > 8.30.
For the molecule `CN(C(=O)Nc1cc(OC(F)(F)F)ccn1)C1CC2(C1)CN(C(=O)c1ncnc3[nH]ccc13)C2` [Example 205, 1-(2-(7H-pyrrolo[2,3-d]pyrimidine-4-carbonyl)-2-azaspiro[3.3]heptan-6-yl)-1-methyl-3-(4-(trifluoromethoxy)pyridin-2-yl)urea], the pKi is 7.60 to 8.30 in experiment [1] and > 8.30 in experiment [2].
In the case of `CN(C(=O)Nc1cncc(C(F)(F)F)c1)C1CC2(C1)CN(C(=O)c1ncnc3[nH]ccc13)C2` [Example 206, 1-(2-(7H-pyrrolo[2,3-d]pyrimidine-4-carbonyl)-2-azaspiro[3.3]heptan-6-yl)-1-methyl-3-(5-(trifluoromethyl)pyridin-3-yl)urea], the pKi in experiment [1] was 7.60 to 8.30; in experiment [2] it was > 8.30.
With `CN(C(=O)Nc1cncc(SC(F)(F)F)c1)C1CC2(C1)CN(C(=O)c1cnn3ccn(C)c13)C2` [Example 207, 1-methyl-1-(2-(1-methyl-1H-imidazo[1,2-b]pyrazole-7-carbonyl)-2-azaspiro[3.3]heptan-6-yl)-3-(5-((trifluoromethyl)thio)pyridin-3-yl)urea], the pKi in experiment [1] was 7.60 to 8.30; in experiment [2], > 8.30.
Consider `CN(C(=O)Nc1cc(C(F)(F)F)cnn1)C1CC2(C1)CN(C(=O)c1cnn3ccn(C)c13)C2` [Example 208, 1-methyl-1-(2-(1-methyl-1H-imidazo[1,2-b]pyrazole-7-carbonyl)-2-azaspiro[3.3]heptan-6-yl)-3-(5-(trifluoromethyl)pyridazin-3-yl)urea], for which the pKi in experiment [1] is 7.00 to 7.60; in experiment [2] it was 7.60 to 8.30.
With `CN(C(=O)Nc1cc(C(F)(F)F)ccn1)C1CC2(C1)CN(C(=O)c1cnn3ccn(CCO)c13)C2` [Example 209, 1-(2-(1-(2-hydroxyethyl)-1H-imidazo[1,2-b]pyrazole-7-carbonyl)-2-azaspiro[3.3]heptan-6-yl)-1-methyl-3-(4-(trifluoromethyl)pyridin-2-yl)urea], the pKi in experiment [1] was 7.60 to 8.30; in experiment [2], > 8.30.
Consider `CN(C(=O)Nc1cccc(S(F)(F)(F)(F)F)c1)C1CC2(C1)CN(C(=O)c1cnn3ccn(CCO)c13)C2` [Example 210, 1-(2-(1-(2-hydroxyethyl)-1H-imidazo[1,2-b]pyrazole-7-carbonyl)-2-azaspiro[3.3]heptan-6-yl)-1-methyl-3-(3-(pentafluoro-16-sulfaneyl)phenyl)urea], for which the pKi in experiment [1] and in experiment [2] was > 8.30 in each case.
As for `COc1c(CO)cc(OC(F)(F)F)cc1NC(=O)NC1CC2(C1)CN(C(=O)c1cnn3ccncc13)C2` [Example 212, 1-(3-(hydroxymethyl)-2-methoxy-5-(trifluoromethoxy)phenyl)-3-(2-(pyrazolo[1,5-a]pyrazine-3-carbonyl)-2-azaspiro[3.3]heptan-6-yl)urea], the results for the pKi in experiment [1] and in experiment [2] were 7.00 to 7.60 and 7.60 to 8.30, respectively.
The matching figures for `COCCn1ccn2ncc(C(=O)N3CC4(CC(N(C)C(=O)Nc5cncc(C(F)(F)F)c5)C4)C3)c12` [Example 213, 1-(2-(1-(2-methoxyethyl)-1H-imidazo[1,2-b]pyrazole-7-carbonyl)-2-azaspiro[3.3]heptan-6-yl)-1-methyl-3-(5-(trifluoromethyl)pyridin-3-yl)urea]: 7.00 to 7.60 and 7.60 to 8.30.
Consider `CN(C(=O)Nc1cncc(C(F)(F)F)c1)C1CC2(C1)CN(C(=O)c1cnn3ccc(N4CCCC4)cc13)C2` [Example 214, 1-methyl-1-(2-(5-(pyrrolidin-1-yl)pyrazolo[1,5-a]pyridine-3-carbonyl)-2-azaspiro[3.3]heptan-6-yl)-3-(5-(trifluoromethyl)pyridin-3-yl)urea], for which the pKi was 7.60 to 8.30 in experiment [1] and > 8.30 in experiment [2].
Consider `CN(C(=O)Nc1cc(C(C)(C)C)no1)C1CC2(C1)CN(C(=O)c1cnn3ccn(C)c13)C2` [Example 215, 3-(3-(tert-butyl)isoxazol-5-yl)-1-methyl-1-(2-(1-methyl-1H-imidazo[1,2-b]pyrazole-7-carbonyl)-2-azaspiro[3.3]heptan-6-yl)urea], for which the pKi in experiment [1] is 7.00 to 7.60; in experiment [2], 7.60 to 8.30.
As for `CN(C(=O)Nc1cncc(C(F)(F)F)c1)C1CC2(C1)CN(C(=O)c1cnn3ccccc13)C2` [Example 216, 1-methyl-1-(2-(pyrazolo[1,5-a]pyridine-3-carbonyl)-2-azaspiro[3.3]heptan-6-yl)-3-(5-(trifluoromethyl)pyridin-3-yl)urea], the pKi in experiment [1] is 7.00 to 7.60; in experiment [2], > 8.30.
With `CN(C(=O)Nc1cc(C(F)(F)F)ccn1)C1CC2(C1)CN(C(=O)c1cnn3ccsc13)C2` [Example 217, 1-methyl-1-(2-(pyrazolo[5,1-b]thiazole-7-carbonyl)-2-azaspiro[3.3]heptan-6-yl)-3-(4-(trifluoromethyl)pyridin-2-yl)urea], the pKi in experiment [1] is 7.60 to 8.30; in experiment [2], > 8.30.
Turning to `COc1c(CO)cc(OC(F)(F)F)cc1NC(=O)N(C)C1CC2(C1)CN(c1cnc3[nH]ncc3c1)C2` [Example 218, 1-(2-(1H-pyrazolo[3,4-b]pyridin-5-yl)-2-azaspiro[3.3]heptan-6-yl)-3-(3-(hydroxymethyl)-2-methoxy-5-(trifluoromethoxy)phenyl)-1-methylurea], the pKi was 7.60 to 8.30 in experiment [1] and > 8.30 in experiment [2].
As for `CN(C(=O)Nc1cc(OC(F)(F)F)ccn1)C1CC2(C1)CN(c1cnc3[nH]ncc3c1)C2` [Example 219, 1-(2-(1H-pyrazolo[3,4-b]pyridin-5-yl)-2-azaspiro[3.3]heptan-6-yl)-1-methyl-3-(4-(trifluoromethoxy)pyridin-2-yl)urea], the pKi in experiment [1] is 7.60 to 8.30; in experiment [2] it was > 8.30.

For the origin of these results see patent US20260285855A1, “HETEROARYL DERIVATIVES AS DDRS INHIBITORS” (CHIESI FARMACEUTICI S.P.A., priority 2023, published 2026).
